# Reference: patent US10118891B2, “Organosulfur compounds for the prevention and treatment of neurodegenerative diseases” (Allium Vitalis, Inc., priority 2011, dated 2018)
# What was measured:
# [1] = test system: protein carbonyls in synaptosomal membranes; settings: cited from earlier work
# [2] = test system: glutathione content of cells; settings: daily dosage of 1000 mg, multiple myeloma patients, with arsenic trioxide; cited from earlier work
# ischemia = ischemia with elevation of HNE; cited from earlier work
# [3] = experimental self-consumption by the applicant, tolerability; type: in vivo, human; settings: 240 mg/day for several weeks
# [4] = cited from earlier work
# [5] = test system: Ehrilich ascites tumor cells; settings: intracellular concentrations up to 0.6 mM; cited from earlier work
# [6] = partition coefficient (Log P), oil and water system; type: physicochemical; settings: worked out from Log P
# From the text: Lipophilic molecule: Attracted to lipids. A molecule is lipophilic if it preferentially partitions into the oily side of an oil and water system.
# [7] = oil and water system; cited from earlier work
molecule,measurement,setting,value
"CCOC(=O)CNC(=O)[C@H](CS)NC(=O)CC[C@H](N)C(=O)O [GEE, Glutathione Ethyl Ester]","protein carbonyls, % of Control","[1]; GEE alone, no acrolein",85%
same,"protein carbonyls, ""GEE+Acrolein"" bar","[1]; synaptosomal membranes pretreated with GEE (3 hours), then acrolein","163 % of ""Control"""
O=C1O[C@H]([C@@H](O)CO)C(O)=C1O [vitamin C],"glutathione depletion, mean percentage decrease",[2],60%
CC1=NN(c2ccccc2)C(=O)C1 [edaravone],effect of treatment in ischemia,ischemia,protective effect
"C=CCS [allyl mercaptan, AllylThiol]",negative effects on consumption,[3],without any apparent negative effects
same,standard comprehensive blood test at the end of the experiment,[3],essentially normal
same,solubility in water,[4],5 g/L
CC(O)C=CC=O (stereo not drawn) [HPE],effect on protein sulfhydryls or enzyme activities,[5],no effect
same,low molecular weight thiols,[5],depleted
"CCCS [propyl mercaptan, 1-PropaneThiol]",ratio of concentration on the oily side to the aqueous side,[6],~100
same,partition coefficient (Log P),[7],1.95
Acrolein,"protein carbonyls, ""C+Acrolein"" bar","[1]; synaptosomal membranes, acrolein without GEE pretreatment","552 % of ""Control"""
